Results taken from patent US9051290B2, “Biaryl phosphodiesterase inhibitors” (LEO PHARMA A/S, priority 2010, dated 2015).

Target: Human recombinant PDE4 (Genbank accession no NM—006203) (Homo sapiens, UniProt Q08499)
Test: PDE4 assay (SPA, cleavage of cAMP)
Type: biochemical
Details: 1 hour incubation, test compound up to 10 μM, cAMP 1×10^−5M, read-out: PDE4 IC50 range
Procedure: Human recombinant PDE4 (Genbank accession no NM_006203) was incubated for 1 hour with the test compound at concentrations up to 10 μM, with cAMP (1×10^−5M), and with a low amount (0.021 MBq) of radioactively labelled cAMP. At the end of the incubation, the cleavage of the substrate was evaluated by the binding of the AMP product to SPA beads, which generate chemoluminescence when bound to the radioactive tracer. The AMP product inhibited the binding of the radioactive tracer to the beads, and the luminescent signal was competed.
The results were calculated as the molar concentrations resulting in 50% inhibition of the substrate cleavage compared to controls samples, and are expressed as a range of IC50 (M).
The compounds of the present invention were tested in the PDE4 assay.

Human recombinant PDE4 (Genbank accession no NM—006203), sequence (Q08499 1-673 isoform Q08499-2): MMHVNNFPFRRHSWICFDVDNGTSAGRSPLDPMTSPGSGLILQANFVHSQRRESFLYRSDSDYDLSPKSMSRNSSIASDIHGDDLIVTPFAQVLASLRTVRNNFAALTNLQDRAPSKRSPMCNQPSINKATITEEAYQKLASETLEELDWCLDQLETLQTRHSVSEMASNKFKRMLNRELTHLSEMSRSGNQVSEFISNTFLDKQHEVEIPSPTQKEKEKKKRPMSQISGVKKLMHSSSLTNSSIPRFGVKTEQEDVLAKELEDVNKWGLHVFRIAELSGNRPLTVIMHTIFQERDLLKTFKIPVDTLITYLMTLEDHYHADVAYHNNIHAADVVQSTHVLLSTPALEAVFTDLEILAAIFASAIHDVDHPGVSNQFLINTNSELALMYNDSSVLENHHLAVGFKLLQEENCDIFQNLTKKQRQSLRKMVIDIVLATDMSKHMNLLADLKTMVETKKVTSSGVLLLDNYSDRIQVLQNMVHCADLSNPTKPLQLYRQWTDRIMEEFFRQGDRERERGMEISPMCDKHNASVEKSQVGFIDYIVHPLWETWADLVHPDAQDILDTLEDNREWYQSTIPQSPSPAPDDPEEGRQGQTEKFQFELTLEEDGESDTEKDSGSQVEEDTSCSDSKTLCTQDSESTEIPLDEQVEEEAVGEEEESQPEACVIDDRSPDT

| SMILES | IC50 |
| --- | --- |
| COC(=O)C(C)(C)COc1c(-c2cccc3c2CCC3=O)ccc(OC)c1OC [Compound 162, 3-[2,3-Dimethoxy-6-(1-oxo-indan-4-yl)-phenoxy]-2,2-dimethyl-propionic acid methyl ester] | < 100 nM |
| CNC(=O)C(C)(C)COc1c(-c2ccc3c(c2)CCC3=O)ccc(OC)c1OC [Compound 206, 3-[2,3-Dimethoxy-6-(1-oxo-indan-5-yl)-phenoxy]-2,2,N-trimethyl-propionamide] | < 100 nM |
| CCNC(=O)OCC1(COc2c(-c3cccc4c3CCC4=O)ccc(OC)c2OC)CC1 [Compound 179, Ethyl-carbamic acid 1-[2,3-dimethoxy-6-(1-oxo-indan-4-yl)-phenoxymethyl]-cyclopropylmethyl ester] | < 100 nM |
| COc1ccc(-c2cccc3c2CCC3=O)c(OCc2ccc(S(N)(=O)=O)cc2)c1OC [Compound 112, 4-[2,3-Dimethoxy-6-(1-oxo-indan-4-yl)-phenoxymethyl]-benzenesulfonamide] | < 100 nM |
| COc1ccc(-c2cccc3c2CCC3=O)c(OCC2CCC2)c1OC [Compound 102, 4-(2-Cyclobutylmethoxy-3,4-dimethoxy-phenyl)-indan-1-one] | < 100 nM |
| COc1ccc(-c2cccc3c2CCC3=O)c(OCC(C)(C)C(=O)N2CCOCC2)c1OC [Compound 204, 4-[2-(2,2-Dimethyl-3-morpholin-4-yl-3-oxo-propoxy)-3,4-dimethoxy-phenyl]-indan-1-one] | < 100 nM |
| COc1ccc(-c2ccc3c(c2)CCC3=O)c(OCC(C)(C)C)c1OC [Compound 121, 5-[2-(2,2-Dimethyl-propoxy)-3,4-dimethoxy-phenyl]-indan-1-one] | < 100 nM |
| COc1ccc(-c2ccc3c(c2)CCC3=O)c(OCCC(C)(C)C)c1OC [Compound 123, 5-[2-(3,3-Dimethyl-butoxy)-3,4-dimethoxy-phenyl]-indan-1-one] | < 100 nM |
| COc1ccc(-c2ccc3c(c2)COC3=O)c(OCC(C)(C)C)c1OC [Compound 132, 5-[2-(2,2-Dimethyl-propoxy)-3,4-dimethoxy-phenyl]-3H-isobenzofuran-1-one] | < 100 nM |
| COc1ccc(-c2ccc3c(c2)COC3=O)c(OCC(C)C)c1OC [Compound 170, 5-(2-Isobutoxy-3,4-dimethoxy-phenyl)-3H-isobenzofuran-1-one] | < 100 nM |
| COc1ccc(-c2cc(OC)c(OC)c3c2CCC3=O)c(OCC(C)C)c1OC [Compound 167, 4-(2-Isobutoxy-3,4-dimethoxy-phenyl)-6,7-dimethoxy-indan-1-one] | 100 to 500 nM |
| COc1ccc(-c2cccc3c2COC3=O)c(OCC(C)C)c1OC [Compound 175, 4-(2-Isobutoxy-3,4-dimethoxy-phenyl)-3H-isobenzofuran-1-one] | < 100 nM |
| COc1ccc(-c2ccc3c(c2)CNC3=O)c(OCCC(C)(C)C)c1OC [Compound 152, 5-[2-(3,3-Dimethyl-butoxy)-3,4-dimethoxy-phenyl]-2,3-dihydro-isoindol-1-one] | < 100 nM |
| COc1ccc(-c2cccc3c2CCC3=O)c(OCC2(CNC(=O)OC(C)C)COC2)c1OC [Compound 197, {3-[2,3-Dimethoxy-6-(1-oxo-indan-4-yl)-phenoxymethyl]-oxetan-3-ylmethyl}-carbamic acid isopropyl ester] | < 100 nM |
| CCNC(=O)OCC1(COc2c(-c3ccc4c(c3)COC4=O)ccc(OC)c2OC)COC1 [Compound 213, Ethyl-carbamic acid 3-[2,3-dimethoxy-6-(1-oxo-1,3-dihydro-isobenzofuran-5-yl)-phenoxymethyl]-oxetan-3-ylmethyl ester] | < 100 nM |
| COc1ccc(-c2ccc3c(c2)CNC3=O)c(OCc2ccc(S(N)(=O)=O)cc2)c1OC [Compound 161, 4-[2,3-Dimethoxy-6-(1-oxo-2,3-dihydro-1H-isoindol-5-yl)-phenoxymethyl]-benzenesulfonamide] | < 100 nM |
| CCNC(=O)OCC1(COc2c(-c3ccc4c(c3)CNC4=O)ccc(OC)c2OC)COC1 [Compound 214, Ethyl-carbamic acid 3-[2,3-dimethoxy-6-(1-oxo-2,3-dihydro-1H-isoindol-5-yl)-phenoxymethyl]-oxetan-3-ylmethyl ester] | ≥ 500 nM |
| COc1ccc(-c2cccc3c2CCC3=O)c(OCc2cccc(C(N)=O)c2)c1OC [Compound 114, 3-[2,3-Dimethoxy-6-(1-oxo-indan-4-yl)-phenoxymethyl]-benzamide] | < 100 nM |
| CCNC(=O)C(C)(C)COc1c(-c2cccc3c2CCC3=O)ccc(OC)c1OC [Compound 201, 3-[2,3-Dimethoxy-6-(1-oxo-indan-4-yl)-phenoxy]-N-ethyl-2,2-dimethyl-propionamide] | < 100 nM |
| COCC1(COc2c(-c3ccc4c(c3)CNC4=O)ccc(OC)c2OC)COC1 [Compound 216, 5-[3,4-Dimethoxy-2-(3-methoxymethyl-oxetan-3-ylmethoxy)-phenyl]-2,3-dihydro-isoindol-1-one] | < 100 nM |
| CCNC(=O)OCC(C)(C)COc1c(-c2ccc3c(c2)CNC3=O)ccc(OC)c1OC [Compound 212, Ethyl-carbamic acid 3-[2,3-dimethoxy-6-(1-oxo-2,3-dihydro-1H-isoindol-5-yl)-phenoxy]-2,2-dimethyl-propyl ester] | ≥ 500 nM |
| COc1ccc(-c2ccc3c(c2)CCC3=O)c(OCC(C)C)c1OC [Compound 169, 5-(2-Isobutoxy-3,4-dimethoxy-phenyl)-indan-1-one] | < 100 nM |
| COc1ccc(-c2ccc3c(c2)CNC3=O)c(OCc2ccc(C(=O)N(C)C)cc2)c1OC [Compound 156, 4-[2,3-Dimethoxy-6-(1-oxo-2,3-dihydro-1H-isoindol-5-yl)-phenoxymethyl]-N,N-dimethyl-benzamide] | < 100 nM |
| COc1ccc(-c2cccc3c2CCC3=O)c(OCC2(CNC(C)=O)COC2)c1OC [Compound 192, N-{3-[2,3-Dimethoxy-6-(1-oxo-indan-4-yl)-phenoxymethyl]-oxetan-3-ylmethyl}-acetamide] | < 100 nM |
| COc1ccc(-c2ccc3c(c2)COC3=O)c(OCc2cccc(S(=O)(=O)N(C)C)c2)c1OC [Compound 145, 3-[2,3-Dimethoxy-6-(1-oxo-1,3-dihydro-isobenzofuran-5-yl)-phenoxymethyl]-N,N-dimethyl-benzenesulfonamide] | < 100 nM |
| COCC(C)(C)COc1c(-c2ccc3c(c2)COC3=O)ccc(OC)c1OC [Compound 218, 5-[3,4-Dimethoxy-2-(3-methoxy-2,2-dimethyl-propoxy)-phenyl]-3H-isobenzofuran-1-one] | < 100 nM |

The remaining lines, values ahead:

| IC50 | SMILES |
| --- | --- |
| < 100 nM | COCCOC(=O)NCC1(COc2c(-c3cccc4c3CCC4=O)ccc(OC)c2OC)COC1 [Compound 198, {3-[2,3-Dimethoxy-6-(1-oxo-indan-4-yl)-phenoxymethyl]-oxetan-3-ylmethyl}-carbamic acid 2-methoxy-ethyl ester] |
| < 100 nM | COc1ccc(-c2cccc3c2COC3=O)c(OCc2ccc(C(N)=O)cc2)c1OC [Compound 116, 4-[2,3-Dimethoxy-6-(1-oxo-1,3-dihydro-isobenzofuran-4-yl)-phenoxymethyl]-benzamide] |
| < 100 nM | COc1ccc(-c2ccc3c(c2)COC3=O)c(OCc2ccc(C(N)=O)cc2)c1OC [Compound 136, 4-[2,3-Dimethoxy-6-(1-oxo-1,3-dihydro-isobenzofuran-5-yl)-phenoxymethyl]-benzamide] |
| < 100 nM | COCCOC(=O)NCC1(COc2c(-c3cccc4c3CCC4=O)ccc(OC)c2OC)CC1 [Compound 188, {1-[2,3-Dimethoxy-6-(1-oxo-indan-4-yl)-phenoxymethyl]-cyclopropylmethyl}-carbamic acid 2-methoxy-ethyl Ester] |
| < 100 nM | COc1ccc(-c2ccc3c(c2)COC3=O)c(OCC2CCC2)c1OC [Compound 133, 5-(2-Cyclobutylmethoxy-3,4-dimethoxy-phenyl)-3H-isobenzofuran-1-one] |
| < 100 nM | COc1ccc(-c2cccc3c2CCC3=O)c(OCC(C)(C)C(=O)NC2CC2)c1OC [Compound 203, N-Cyclopropyl-3-[2,3-dimethoxy-6-(1-oxo-indan-4-yl)-phenoxy]-2,2-dimethyl-propionamide] |
| < 100 nM | COc1ccc(-c2ccc3c(c2)CNC3=O)c(OCc2ccc(S(C)(=O)=O)cc2)c1OC [Compound 150, 5-[2-(4-Methanesulfonyl-benzyloxy)-3,4-dimethoxy-phenyl]-2,3-dihydro-isoindol-1-one] |
| < 100 nM | COc1ccc(-c2cccc3c2CCC3=O)c(OCc2ccc(C(N)=O)cc2)c1OC [Compound 106, 4-[2,3-Dimethoxy-6-(1-oxo-indan-4-yl)-phenoxymethyl]-benzamide] |
| < 100 nM | COc1ccc(-c2cccc3c2CCC3=O)c(OCC2(CNC(=O)OC(C)C)CC2)c1OC [Compound 187, {1-[2,3-Dimethoxy-6-(1-oxo-indan-4-yl)-phenoxymethyl]-cyclopropylmethyl}-carbamic Acid Isopropyl Ester] |
| < 100 nM | COCC1(COc2c(-c3cccc4c3CCC4=O)ccc(OC)c2OC)CC1 [Compound 178, 4-[3,4-Dimethoxy-2-(1-methoxymethyl-cyclopropylmethoxy)-phenyl]-indan-1-one] |
| < 100 nM | COc1ccc(-c2ccc3c(c2)CCC3=O)c(OCC(C)(C)CO)c1OC [Compound 125, 5-[2-(3-Hydroxy-2,2-dimethyl-propoxy)-3,4-dimethoxy-phenyl]-indan-1-one] |
| < 100 nM | COc1ccc(-c2ccc3c(c2)COC3=O)c(OCC2(CO)COC2)c1OC [Compound 134, 5-[2-(3-Hydroxymethyl-oxetan-3-ylmethoxy)-3,4-dimethoxy-phenyl]-3H-isobenzofuran-1-one] |
| < 100 nM | COc1ccc(-c2ccc3c(c2)CNC3=O)c(OCc2cccc(S(C)(=O)=O)c2)c1OC [Compound 160, 5-[2-(3-Methanesulfonyl-benzyloxy)-3,4-dimethoxy-phenyl]-2,3-dihydro-isoindol-1-one] |
